Results published in PubChem BioAssay (NCI).
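Where inhibition never reached the appropriate level, the endpoint shown equals the highest concentration tested. Otherwise, values were interpolated linearly from a five-concentration, 48-hour dose response in 96-well plates. Definition used: TGI = concentration required for complete inhibition of growth.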

Tests used:
Test in all cases: inhibition of tumour cell growth, NCI panel, 48 h
EKVX NSCLC = tested on: EKVX NSCLC
HS 578T breast = tested on: HS 578T breast
NCI-H23 lung = tested on: NCI-H23 lung
DU-145 prostate = tested on: DU-145 prostate
MDA-MB-435 = tested on: MDA-MB-435
SK-OV-3 ovarian = tested on: SK-OV-3 ovarian
OVCAR-4 ovarian = tested on: OVCAR-4 ovarian
MDA-MB-231 breast = tested on: MDA-MB-231 breast
T-47D breast = tested on: T-47D breast
MDA-N = tested on: MDA-N
UACC-62 melanoma = tested on: UACC-62 melanoma
786-0 renal = tested on: 786-0 renal
NCI-H226 lung = tested on: NCI-H226 lung
KM12 colon = tested on: KM12 colon
K-562 leukemia = tested on: K-562 leukemia
HCT-116 colon = tested on: HCT-116 colon
M14 melanoma = tested on: M14 melanoma
HOP-62 NSCLC = tested on: HOP-62 NSCLC
NCI-H522 lung = tested on: NCI-H522 lung
SK-MEL-28 melanoma = tested on: SK-MEL-28 melanoma

SMILES	TGI (EKVX NSCLC) [µM]	TGI (HS 578T breast) [µM]	TGI (NCI-H23 lung) [µM]	TGI (DU-145 prostate) [µM]	TGI (MDA-MB-435) [µM]	TGI (SK-OV-3 ovarian) [µM]	TGI (OVCAR-4 ovarian) [µM]	TGI (MDA-MB-231 breast) [µM]	TGI (T-47D breast) [µM]	TGI (MDA-N) [µM]	TGI (UACC-62 melanoma) [µM]	TGI (786-0 renal) [µM]	TGI (NCI-H226 lung) [µM]	TGI (KM12 colon) [µM]	TGI (K-562 leukemia) [µM]	TGI (HCT-116 colon) [µM]	TGI (M14 melanoma) [µM]	TGI (HOP-62 NSCLC) [µM]	TGI (NCI-H522 lung) [µM]	TGI (SK-MEL-28 melanoma) [µM]
CCO/C(O)=C(/C(=N)N1CCCC1)C(=O)Nc1ccc(F)cc1	> 100	> 100	59.4	> 100	> 100	> 100	> 100	> 100	> 100	> 100	> 100	> 100	> 100	> 100	> 100	> 100	> 100	> 100	> 100	> 100
COc1cc2ccc1OCc1cccc(n1)COc1ccc(cc1OC)C=Nc1ccc(cc1)-c1ccc(cc1)N=C2	> 100	> 100	> 100	> 100	> 100	> 100	> 100	> 100	> 100	> 100	> 100	> 100	> 100	> 100	> 100	> 100	> 100	> 100	> 100	–
CC(C)(CC#N)c1cc(CC(C)(C)c2cc(CC(C)(C)c3cc(C(C)(C)C4(C)OCCO4)no3)no2)no1	> 100	88.7	> 100	> 100	> 100	> 100	91	99.7	> 100	> 100	> 100	43.1	> 100	> 100	> 100	> 100	> 100	> 100	> 100	> 100
CN(C)CC1(Cc2ccccc2)CCC(Cc2ccccc2)C1=O (stereo unspecified)	31.8	48.9	36.1	28.7	23.8	36.4	31	24.3	51.5	25	32.5	4.37	37.9	20.9	7.74	26.7	23.9	33	7.59	26.6
O=C1CCCCC(=O)Nc2ccccc2N1	> 100	> 100	> 100	> 100	> 100	> 100	> 100	> 100	> 100	> 100	> 100	> 100	> 100	> 100	> 100	> 100	> 100	> 100	> 100	> 100
O=C1CCCCCC1CC(Sc1ccccc1)Sc1ccccc1 (stereo unspecified)	> 100	> 100	> 100	> 100	> 100	> 100	> 100	> 100	> 100	> 100	> 100	> 100	> 100	> 100	> 100	–	> 100	> 100	> 100	> 100
C#C[C@]1(O)CC[C@H]2[C@@H]3CCC4=C/C(=N\OCCN(CC)CC)CC[C@]4(C)[C@H]3CC[C@@]21C	26.6	7.51	19.7	25.8	15.2	34.4	50.4	35.2	40.9	6.24	11.3	9.42	29.8	11.4	11.9	17.6	10.9	16	5.76	25.8
Cc1n[nH]c(=O)n1/N=C/c1ccncc1	> 100	> 100	> 100	> 100	> 100	> 100	> 100	> 100	> 100	> 100	> 100	> 100	> 100	> 100	> 100	> 100	> 100	> 100	> 100	> 100
O=C(O)c1cc(O)c2c(c1)C([C@@H]1c3cccc(O)c3C(=O)c3c(O)cc(C(=O)O)cc31)c1cccc(O)c1C2=O (stereo partly specified)	> 100	69.4	> 100	> 100	49	> 100	> 100	95.8	> 100	41.5	78.6	> 100	> 100	44.3	86.4	38.1	–	–	44.6	> 100
CC1(C)CCCOc2cccc(c2)OCCCC(C)(C)C1=O	> 100	> 100	> 100	> 100	> 100	> 100	> 100	> 100	> 100	> 100	73.6	> 100	82.9	> 100	> 100	> 100	> 100	> 100	67.3	> 100
Clc1ccc(C=NC23CC4CC(CC(C4)C2)C3)cc1Cl	> 10	> 10	> 10	> 10	> 10	> 10	> 10	> 10	> 10	> 10	> 10	> 10	> 10	> 10	> 10	> 10	> 10	> 10	> 10	> 10
